Laboratory results reported in patent US10815274B2, “Immunogenic WT-1 peptides and methods of use thereof” (Memorial Sloan Kettering Cancer Center, priority 2012, dated 2020).
Where a SMILES comes first, the peptide text is derived from it.

Key:
Details in all cases: 50:1 E:T
WT1- autologous APC = assay: Cr51 release assay, cytotoxic CTL response vs unmodified autologous APC; assay type: cell-based, human
[1] = system: WT1 peptide loaded autologous APC; assay: Cr51 release assay, cytotoxic CTL response vs peptide loaded autologous APC; assay type: cell-based, human
WT1- leukemia = assay: Cr51 release assay, cytotoxic CTL response vs WT1- leukemia; assay type: cell-based, human
Description: (§1) Twenty-four primary leukemic cells and 1 leukemic cell line were characterized for their expression of WT1 by intracellular FACS staining using murine anti-human WT1 monoclonal antibodies (Neomarkers, Fremont, Calif.) as previously described (32,38) The WT1+ leukemias included blast cells from 11 primary AMLs, 3 primary ALLs and 1B-cell precursor ALL cell line. Ten WT1-leukemias, were used as controls, and included 3 B-cell precursor ALLs and 7 AMLs.

WT1+ leukemia = assay: Cr51 release assay, cytotoxic CTL response vs WT1+ leukemia expressing restricting HLA allele; assay type: cell-based, human
Description: as §1
PHA blasts were not available from every patient that provided leukemia blasts for this study.

[2] = system: WT1- allo APC with restricting HLA allele; assay: Cr51 release assay, cytotoxic CTL response vs unloaded allogeneic APC sharing restricting HLA allele; assay type: cell-based, human
[3] = system: WT1+ allo APC with restricting HLA allele loaded with WT1 peptide; assay: Cr51 release assay, cytotoxic CTL response vs peptide loaded allogeneic APC sharing restricting HLA allele (HLA restriction)

Q: Which “Cytotoxic CTL response, % vs WT1- autologous APC” value (WT1- autologous APC; HLA allele A0101) does the source give for `CC(C)C[C@H](NC(=O)[C@H](CC(C)C)NC(=O)[C@H](CC(C)C)NC(=O)[C@H](C)NC(=O)[C@H](CCC(N)=O)NC(=O)[C@H](CO)NC(=O)CNC(=O)[C@@H](NC(=O)[C@@H](N)CS)[C@@H](C)O)C(=O)O` [SEQ ID NO: 167] (H-CTGSQALLL-OH; N-terminus and C-terminus assumed) here?
A: 0%

Q: And the “Cytotoxic CTL response, % vs WT1 peptide loaded autologous APC” value ([1]; HLA allele A0101)?
A: 21%

Q: What about the “Cytotoxic CTL response, % vs WT1- leukemia” value (WT1- leukemia; HLA allele A0101) of the same molecule?
A: 3%

Q: What about the “Cytotoxic CTL response, % vs WT1+ leukemia” value (WT1+ leukemia; HLA allele A0101) of the same molecule?
A: 33%

Q: And the “Cytotoxic CTL response, % vs WT1- allo APC with restricting HLA allele” value ([2]; HLA allele A0101)?
A: 0%

Q: What about the “Cytotoxic CTL response, % vs WT1+ allo APC with restricting HLA allele loaded with WT1 peptide” value (shortened to “Cytotoxic CTL response, % … with WT1 peptide”) ([3]; HLA allele A0101) of the same molecule?
A: 26%

Q: How did the “Cytotoxic CTL response, % vs WT1- autologous APC” value (WT1- autologous APC; HLA allele B3802) turn out when `C[C@H](NC(=O)[C@H](CCC(N)=O)NC(=O)[C@H](CO)NC(=O)CNC(=O)[C@@H](NC(=O)[C@H](CS)NC(=O)[C@H](CO)NC(=O)[C@H](CC(=O)O)NC(=O)[C@@H](N)[C@@H](C)O)[C@@H](C)O)C(=O)O` [SEQ ID NO: 168] (H-TDSCTGSQA-OH; N-terminus and C-terminus assumed) was run?
A: 0%

Q: What about the “Cytotoxic CTL response, % vs WT1- autologous APC” value (WT1- autologous APC; HLA allele B4402) of the same molecule?
A: 1%

Q: And the “Cytotoxic CTL response, % vs WT1 peptide loaded autologous APC” value ([1]; HLA allele B3802)?
A: 88%

Q: And the “Cytotoxic CTL response, % vs WT1 peptide loaded autologous APC” value ([1]; HLA allele B4402)?
A: 36%

Q: And the “Cytotoxic CTL response, % vs WT1- leukemia” value (WT1- leukemia; HLA allele B4402)?
A: 1%

Q: And the “Cytotoxic CTL response, % vs WT1+ leukemia” value (WT1+ leukemia; HLA allele B4402)?
A: 56%

Q: And the “Cytotoxic CTL response, % vs WT1- allo APC with restricting HLA allele” value ([2]; HLA allele B3802)?
A: 1%

Q: And the “Cytotoxic CTL response, % vs WT1- allo APC with restricting HLA allele” value ([2]; HLA allele B4402)?
A: 0%

Q: What about the “Cytotoxic CTL response, % … with WT1 peptide” value ([3]; HLA allele B3802) of the same molecule?
A: 53%

Q: What about the “Cytotoxic CTL response, % … with WT1 peptide” value ([3]; HLA allele B4402) of the same molecule?
A: 88%

Q: Which results are given for `CSCC[C@H](NC(=O)[C@H](CCC(N)=O)NC(=O)[C@H](CC(N)=O)NC(=O)[C@@H](N)Cc1c[nH]c2ccccc12)C(=O)N[C@@H](CC(N)=O)C(=O)N[C@@H](CC(C)C)C(=O)NCC(=O)N[C@@H](C)C(=O)N[C@H](C(=O)O)[C@@H](C)O` [SEQ ID NO: 171] (H-WNQMNLGAT-OH; N-terminus and C-terminus assumed)?
A: Cytotoxic CTL response, % vs WT1- autologous APC (WT1- autologous APC; HLA allele A0101): 0%; Cytotoxic CTL response, % vs WT1- autologous APC (WT1- autologous APC; HLA allele A0201): 0%; Cytotoxic CTL response, % vs WT1- autologous APC (WT1- autologous APC; HLA allele B3508): 0%; Cytotoxic CTL response, % vs WT1- autologous APC (WT1- autologous APC; HLA allele C1701): 0%; Cytotoxic CTL response, % vs WT1 peptide loaded autologous APC ([1]; HLA allele A0101): 26%; Cytotoxic CTL response, % vs WT1 peptide loaded autologous APC ([1]; HLA allele A0201): 18%; Cytotoxic CTL response, % vs WT1 peptide loaded autologous APC ([1]; HLA allele B3508): 18%; Cytotoxic CTL response, % vs WT1 peptide loaded autologous APC ([1]; HLA allele C1701): 10%; Cytotoxic CTL response, % vs WT1- leukemia (WT1- leukemia; HLA allele A0201): 1%; Cytotoxic CTL response, % vs WT1- leukemia (WT1- leukemia; HLA allele B3508): 4%; Cytotoxic CTL response, % vs WT1- leukemia (WT1- leukemia; HLA allele C1701): 1%; Cytotoxic CTL response, % vs WT1+ leukemia (WT1+ leukemia; HLA allele A0201): 19%; Cytotoxic CTL response, % vs WT1+ leukemia (WT1+ leukemia; HLA allele B3508): 19%; Cytotoxic CTL response, % vs WT1+ leukemia (WT1+ leukemia; HLA allele C1701): 16%; Cytotoxic CTL response, % vs WT1- allo APC with restricting HLA allele ([2]; HLA allele A0101): 3%; Cytotoxic CTL response, % vs WT1- allo APC with restricting HLA allele ([2]; HLA allele A0201): 0%; Cytotoxic CTL response, % vs WT1- allo APC with restricting HLA allele ([2]; HLA allele B3508): 2%; Cytotoxic CTL response, % vs WT1- allo APC with restricting HLA allele ([2]; HLA allele C1701): 0%; Cytotoxic CTL response, % vs WT1+ allo APC with restricting HLA allele loaded with WT1 peptide ([3]; HLA allele A0101): 19%; Cytotoxic CTL response, % vs WT1+ allo APC with restricting HLA allele loaded with WT1 peptide ([3]; HLA allele A0201): 21%; Cytotoxic CTL response, % vs WT1+ allo APC with restricting HLA allele loaded with WT1 peptide ([3]; HLA allele B3508): 21%; Cytotoxic CTL response, % vs WT1+ allo APC with restricting HLA allele loaded with WT1 peptide ([3]; HLA allele C1701): 7%

Q: Which “Cytotoxic CTL response, % vs WT1- autologous APC” value (WT1- autologous APC; HLA allele A2402) does the source give for `CSCC[C@H](NC(=O)[C@H](CCC(N)=O)NC(=O)[C@@H](N)CC(N)=O)C(=O)N[C@@H](CC(N)=O)C(=O)N[C@@H](CC(C)C)C(=O)NCC(=O)N[C@@H](C)C(=O)N[C@H](C(=O)N[C@@H](CC(C)C)C(=O)O)[C@@H](C)O` [SEQ ID NO: 172] (H-NQMNLGATL-OH; N-terminus and C-terminus assumed) here?
A: 4%

Q: What about the “Cytotoxic CTL response, % vs WT1 peptide loaded autologous APC” value ([1]; HLA allele A2402) of the same molecule?
A: 9%

Q: And the “Cytotoxic CTL response, % vs WT1- leukemia” value (WT1- leukemia; HLA allele A2402)?
A: 1%

Q: And the “Cytotoxic CTL response, % vs WT1+ leukemia” value (WT1+ leukemia; HLA allele A2402)?
A: 17%

Q: What about the “Cytotoxic CTL response, % vs WT1- allo APC with restricting HLA allele” value ([2]; HLA allele A2402) of the same molecule?
A: 0%

Q: And the “Cytotoxic CTL response, % … with WT1 peptide” value ([3]; HLA allele A2402)?
A: 2%

Q: With `CSCC[C@H](NC(=O)[C@H](CCC(N)=O)NC(=O)[C@H](CC(N)=O)NC(=O)[C@@H](N)Cc1c[nH]c2ccccc12)C(=O)N[C@@H](CC(N)=O)C(=O)N[C@@H](CC(C)C)C(=O)NCC(=O)N[C@@H](C)C(=O)N[C@H](C(=O)N[C@@H](CC(C)C)C(=O)N[C@@H](CCCCN)C(=O)O)[C@@H](C)O` [SEQ ID NO: 173] (H-WNQMNLGATLK-OH; N-terminus and C-terminus assumed) as the molecule, how does the “Cytotoxic CTL response, % vs WT1- autologous APC” value (WT1- autologous APC; HLA allele DRB11104) read?
A: 0%

Q: What about the “Cytotoxic CTL response, % vs WT1 peptide loaded autologous APC” value ([1]; HLA allele DRB11104) of the same molecule?
A: 8%

Q: And the “Cytotoxic CTL response, % vs WT1- leukemia” value (WT1- leukemia; HLA allele DRB11104)?
A: 0%

Q: And the “Cytotoxic CTL response, % vs WT1+ leukemia” value (WT1+ leukemia; HLA allele DRB11104)?
A: 0%

Q: And the “Cytotoxic CTL response, % vs WT1- allo APC with restricting HLA allele” value ([2]; HLA allele DRB11104)?
A: 2%

Q: What about the “Cytotoxic CTL response, % … with WT1 peptide” value ([3]; HLA allele DRB11104) of the same molecule?
A: 1%

Q: `CC(C)C[C@H](NC(=O)[C@@H](NC(=O)[C@H](C)NC(=O)CNC(=O)[C@H](CC(C)C)NC(=O)[C@@H](N)CC(N)=O)[C@@H](C)O)C(=O)N[C@@H](CCCCN)C(=O)NCC(=O)N[C@H](C(=O)O)C(C)C` [SEQ ID NO: 175] (H-NLGATLKGV-OH; N-terminus and C-terminus assumed) was tested. Which “Cytotoxic CTL response, % vs WT1- autologous APC” value (WT1- autologous APC; HLA allele A0101) did it give?
A: 2%

Q: What about the “Cytotoxic CTL response, % vs WT1- autologous APC” value (WT1- autologous APC; HLA allele A0201) of the same molecule?
A: 1%

Q: What about the “Cytotoxic CTL response, % vs WT1 peptide loaded autologous APC” value ([1]; HLA allele A0101) of the same molecule?
A: 19%

Q: What about the “Cytotoxic CTL response, % vs WT1 peptide loaded autologous APC” value ([1]; HLA allele A0201) of the same molecule?
A: 18%

Q: What about the “Cytotoxic CTL response, % vs WT1- leukemia” value (WT1- leukemia; HLA allele A0201) of the same molecule?
A: 2%

Q: And the “Cytotoxic CTL response, % vs WT1+ leukemia” value (WT1+ leukemia; HLA allele A0201)?
A: 19%

Q: What about the “Cytotoxic CTL response, % vs WT1- allo APC with restricting HLA allele” value ([2]; HLA allele A0101) of the same molecule?
A: 1%

Q: What about the “Cytotoxic CTL response, % vs WT1- allo APC with restricting HLA allele” value ([2]; HLA allele A0201) of the same molecule?
A: 1%

Q: And the “Cytotoxic CTL response, % … with WT1 peptide” value ([3]; HLA allele A0101)?
A: 17%

Q: And the “Cytotoxic CTL response, % … with WT1 peptide” value ([3]; HLA allele A0201)?
A: 14%
